Results reported in patent US20130059879A1, “Small Molecule Inhibitors of PFKFB3 and Glycolytic Flux and Their Methods of Use as Anti-Cancer Therapeutics” (UNIVERSITY OF LOUISVILLE RESEARCH FOUNDATION, INC., priority 2010, published 2013).
Converted amounts (≈) assume the structure as drawn. Read-outs that look alike come from different tables or passages of the source.

Key:
PFKFB3 = target: T1, PFKFB3 (Homo sapiens, UniProt Q16875); test: Inhibition of recombinant PFKFB3 kinase activity (ADP Glow assay); type: biochemical; settings: 250 nM analog concentration; read-out: % Inhibition of PFKFB3 Enzymatic Activity
T1 construct: GST
Experimental: PFKFB3 was prepared by expression in E. coli and purified by GST column and column chromatography. […] The recombinant protein was pure and active as determined by the results of a kinase activity assay commercially available (such as ADP Glow® assay, […]). The same assay was used to determine the inhibition of the protein and the results are shown in Table 5 below (IC50 values or percent inhibition at a fixed concentration). Results confirmed that the compounds of the invention have low nanomolar IC50 values, interacting with PFKFB3 and inhibiting its enzymatic activity.

[1] = Microsomal stability in human liver microsomes; type: in vitro ADME
Jurkat = test: Cancer cell proliferation, Alamar Blue assay, 72 hours; type: cell-based; settings: Homo sapiens, Jurkat
How it was run: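 This Alamar Blue assay measured the ability of compounds to kill or inhibit proliferation of Jurkat cancer cells. Cells seeded in 96 well plates at 2×10^5 cells/ml received compounds the following day, added at twice the indicated concentration in an equal volume of media. Exposure lasted 72 hours, and IC50 values were derived from triplicate experiments.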

U937 = test: as above; type: cell-based; settings: Homo sapiens, U-937
NCI-H82 = test: as above; type: cell-based; settings: Homo sapiens, NCI-H82, read-out: IC50 NCl-H82
How it was run: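 This cell-based assay measured whether compounds kill or inhibit growth of NCI-H82 tumor cells, using Alamar Blue as the readout. Plating was at 2×10^5 cells/ml in 96 well plates. Compounds, prepared at double the final concentration, were added next day in the same volume of medium. Exposure lasted 72 hours, and each experiment was run in triplicate.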

HCT-116 = test: as above; type: cell-based; settings: Homo sapiens, HCT-116
Calu-6 = test: as above; type: cell-based; settings: Homo sapiens, Calu-6
How it was run: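 Calu-6 human cancer cells were seeded at 2×10^5 cells/ml in 96 well plates. The next day, an equal volume of media containing the compounds at twice the intended concentration was added. After 72 hours of exposure, inhibition of proliferation was measured with the Alamar Blue assay, run in triplicate, and IC50 values were determined.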

MDA-MB-231 = test: as above; type: cell-based; settings: Homo sapiens
[2] = Solubility in solvents and excipients, 1 hour at room temperature, HPLC; type: physicochemical; settings: thermodynamic from solid
Experimental: Chemical properties of the compounds of the invention were investigated, including the solubility in several solvents and pharmaceutically accepted excipients. […] Briefly, selected compounds of the invention are dissolved in a small volume of the solvents/excipients of interest at room temperature over 1 hour in typically 1 ml and the concentration is measured by HPLC after filtration.

Jurkat cells = test: Inhibition of 14C-2-deoxyglucose uptake; type: cell-based; settings: Homo sapiens, 3 hours
Experimental: Inhibition of PFKFB3 results in inhibiting glycolysis. Several feedback or feedforward activation and inhibition mechanisms exist so that, by a feedback mechanism, inhibiting the activity of PFKFB3 may inhibit glucose uptake by cells. An assay was developed to determine if there was inhibition of glucose uptake following exposure to the compounds on the invention. Briefly, Jurkat cells were plated at 1×10^5/mL in RPM′ 1640 supplemented with 10% fetal bovine serum and 50 μg/mL gentamicin sulfate. Cells were immediately treated with vehicle or 5 μmol/L of the compound of the invention for 3 hours and subsequently placed in glucose-free RPMI 1640 for 30 min. ^14C-2-deoxyglucose (0.25 μCi/mL; Perkin Elmer) was added for an additional 60 min and cells were then washed three with ice-cold RPMI 1640 containing no glucose. Cell lysates were collected in 500 μL of 0.1% SDS, and scintillation counts (counts/min) were measured on 400 μL of lysate. Counts were normalized to protein concentration.

[3] = Cell permeability in Caco2 monolayers; type: in vitro ADME; settings: human, Caco-2, Caco2 cells, pH 7.4
Source text: The determination of the permeability in Caco2 or MDR1-MDCK cells is widely used when screening compounds to assess cell permeability, intestinal drug transport and predict absorption rates and to ascertain if a compound might be a Pgp substrate and have cross the blood brain barrier. […] Comparison of the apical to basal (A-B) and basal to apical (B-A) values show if a compound is actively effluxed out the cells and if it is a Pgp substrate. […] Briefly, cell permeability and transport mechanisms in Caco-2 and MDR1-MDCK monolayers experiments were performed in triplicate in the apical-to-basolateral and basolateral-to-apical direction using Transwell wells containing either Caco-2 or MDR1-MDCK monolayers. A modified Hanks buffer pH 7.4 was used in both reservoir and receiver wells with the addition of 1% BSA in the receiver side. Confluent monolayers were used and their integrity was verified using reference compounds (Atenolol as a low permeability reference compound and Propanolol as a high permeability reference compound). A sample in the basolateral and apical sides was taken after 2 hours and the concentration measured by LC/MS-MS.

SK-BR-3 = test: Cell proliferation, MTT assay, 48 hours; type: cell-based; settings: Homo sapiens, SK-BR-3, MTT assay
Experimental: (§1) The ability of the compounds described herein to kill or inhibit the proliferation of cancer cells was measured using either the MTT assay, or the Alamar Blue assay, or the Cell Titer Glow® assay using 48 or 72 hours exposure. […] The procedures are briefly described below. Cells of the desired tumor cell line were plated at 2×10^5 cells/ml in 96 well plates. Twice the indicated concentrations of the compounds of the invention were added to cells the following day in an equal volume of media. 72 hours later, cells were lysed and subjected to ATP determination using the CellTiter Glo-Luminescent Cell Viability Assay kit (Promega, Madison, Wis.). Experiments were done in triplicate. When using the MTT assay or the Alamar blue assay, the experimental conditions are essentially similar; at the end of the incubation period, 20 microliters of the MTT solution is added per well and the samples are incubated for an additional four hours, rinsed, and the absorbance at 570 nm measured. […] Table 2 lists the IC50 values for the compounds of the invention in several cell lines including Jurkat, Calu-6, NCI-H82, U937, HCT-116, and MDA-MB-231 cancer cell lines.

SK-N-SH = test: Cell proliferation, MTT assay, 48 hours; type: cell-based; settings: Homo sapiens
Experimental: as §1

[4] = 60 min incubation, 1.0 mg/ml microsomal protein, 1 mM NADPH, 37° C.
[5] = aqueous with cosolvent or surfactant or cyclodextrin, Cre:EtOH:Saline 5:5:90 mixture, 1 hour at room temperature, read-out: Solubility Cre:EtOH:Saline
[6] = ethanol, organic solvent or mixture, EtOH, 1 hour at room temperature, read-out: Solubility EtOH
[7] = organic solvent or mixture, 1:1 cremophor EL-P:ethanol mixture, 1 hour at room temperature, read-out: Solubility Cre:EtOH
[8] = organic solvent or mixture, Acetone, 1 hour at room temperature, read-out: Solubility Acetone
[9] = organic solvent or mixture, Cremophor, 1 hour at room temperature, read-out: Solubility Cremophor
[10] = organic solvent or mixture, DCM, 1 hour at room temperature, read-out: Solubility DCM
[11] = organic solvent or mixture, Tween 80, 1 hour at room temperature, read-out: Solubility Tween 80
[12] = organic solvent or mixture, Tween80:EtOH 6:4 mixture, 1 hour at room temperature, read-out: Solubility Twee80:EtOH

T1 sequence (Q16875 whole entry, species assumed): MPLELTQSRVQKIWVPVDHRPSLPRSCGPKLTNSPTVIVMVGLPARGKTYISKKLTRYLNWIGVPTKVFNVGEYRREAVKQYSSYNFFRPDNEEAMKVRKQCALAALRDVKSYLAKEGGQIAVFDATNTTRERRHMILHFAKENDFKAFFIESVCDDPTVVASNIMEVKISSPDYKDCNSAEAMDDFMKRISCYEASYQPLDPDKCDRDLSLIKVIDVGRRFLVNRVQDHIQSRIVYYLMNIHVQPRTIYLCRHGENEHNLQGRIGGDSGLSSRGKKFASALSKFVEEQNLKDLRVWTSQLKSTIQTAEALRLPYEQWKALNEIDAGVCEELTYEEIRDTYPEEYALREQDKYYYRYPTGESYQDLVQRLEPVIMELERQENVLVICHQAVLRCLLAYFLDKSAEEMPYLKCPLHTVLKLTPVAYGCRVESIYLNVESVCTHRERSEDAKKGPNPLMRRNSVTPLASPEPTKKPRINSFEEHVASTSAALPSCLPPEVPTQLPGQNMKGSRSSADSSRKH

| inhibition at 0.25 µM (PFKFB3) [%] | HLM, Mean metabolized (%) ([1]; 0 min) | HLM, Mean metabolized (%) [1, 4] [%] | IC50 (Jurkat) [nM] | IC50 (U937) [nM] | IC50 (NCI-H82) [nM] | IC50 (HCT-116) [nM] | IC50 (Calu-6) [nM] | IC50 (MDA-MB-231) [nM] | solubility at 1 h [2, 5] [µg/mL] | solubility at 1 h [2, 6] [µg/mL] | solubility at 1 h [2, 7] [µg/mL] | solubility at 1 h [2, 8] [µg/mL] | solubility at 1 h [2, 9] [µg/mL] | solubility at 1 h [2, 10] [µg/mL] | solubility at 1 h [2, 11] [µg/mL] | solubility at 1 h [2, 12] [µg/mL] | Compound | inhibition at 5 µM (Jurkat cells) [%] | also measured |
| --- | --- | --- | --- | --- | --- | --- | --- | --- | --- | --- | --- | --- | --- | --- | --- | --- | --- | --- | --- |
| 26.2 | 0.0 | 26 | 1500 | 50 | 498 | 2400 | 208 | 395 | 300 (≈ 1.1 mM) | 1600 (≈ 5.88 mM) | 10000 (≈ 36.7 mM) | 5000 (≈ 18.4 mM) | 6900 (≈ 25.3 mM) | 3400 (≈ 12.5 mM) | 7400 (≈ 27.2 mM) | 9700 (≈ 35.6 mM) | O=C(c1ccncc1)c1cc2c(ccc3ccccc32)[nH]1 [ACT-PFK-095, (3H-Benzo[e]indol-2-yl)-pyridin-4-yl-methanone] | 48 | Papp A→B at 2 h ([3]; apical to basal): 16.2 ×10⁻⁶ cm/s; Papp B→A at 2 h ([3]; basal to apical): 8.9 ×10⁻⁶ cm/s |
| 81.5 | 0.0 | 82.7 | 625 | 130 | 685 | 1440 | 260 | 205 | 3700 (≈ 12.9 mM) | 7400 (≈ 25.8 mM) | 37600 (≈ 131 mM) | 8200 (≈ 28.6 mM) | 18600 (≈ 65 mM) | 14000 (≈ 48.9 mM) | 18100 (≈ 63.2 mM) | 35600 (≈ 124 mM) | Nc1ccc(C(=O)c2cc3c(ccc4ccccc43)[nH]2)cc1 [ACT-PFK-112, (4-Amino-phenyl)-(3H-benzo[e]indol-2-yl)-methanone] | 47 | IC50 (SK-BR-3): 1110 nM; IC50 (SK-N-SH): 305 nM |
